The results in this text go back to patent publication US10112945B2, “Fused quinoline compunds as PI3K, mTOR inhibitors” (ADVENCHEN PHARMACEUTICALS, NANJING LTD., priority 2014, dated 2018).

For one assay, the target named is T1, mTor (Homo sapiens, UniProt P42345).
T1 construct: purchased Millipore/Merck KGA
Nature of the assay: In vitro kinase inhibition, mTor (Millipore/Merck kinases panel screening). Format: biochemical. Particulars: compound at 0.03 μM; scaffold drawing 7 series. As for the experimental part: (§1) In vitro kinase inhibition activities included Pi3k and mTor activities can be tested with Millipore/Merck KGA of Europe in their kinases panel screening. Animal antitumor activity testing can be conducted by various cancer xenograft models for a compound of formula I.
(§2) The following compounds or a pharmaceutically acceptable salt thereof, but not limited, can also be prepared similarly according to the methods described in Scheme I-Scheme II. They are also tested for the inhibitions on mTor or pi3k kinases, or tumor cell lines.

The next assay concerns pi3K. Description: In vitro kinase inhibition, pi3K (Millipore/Merck kinases panel screening). Particulars: compound at 0.03 μM; scaffold drawing 7 series. Format: biochemical. As for the experimental part: as §1, §2

Regarding `O=C(CN1CCOCC1)Nc1ccc(-c2ccc3ncc4c(c3c2)n(-c2cccc(C(F)(F)F)c2)c2nncn42)cn1` [2-(morpholin-4-yl)-N-(5-{16-[3-(trifluoromethyl)phenyl]-8,11,13,14,16-pentaazatetracyclo-[8.6.0.0^2,7.0^11,15]hexadeca-1(10),2,4,6,8,12,14-heptaen-4-yl}pyridin-2-yl)acetamide], the activity at 0.03 µM at mTor was 31%. The “pi3K % activity @0.03 μM” value with pi3K is listed as 95%.

As for `COCCNc1ccc(-c2ccc3ncc4c(c3c2)n(-c2cccc(C(F)(F)F)c2)c2nncn42)cn1` [N-(2-methoxyethyl)-5-{16-[3-(trifluoromethyl)phenyl]-8,11,13,14,16-pentaazatetracyclo-[8.6.0.0^2,7.0^11,15]-hexadeca-1(10),2,4,6,8,12,14-heptaen-4-yl}pyridin-2-amine], the activity at 0.03 µM on mTor is -3%. In addition, the “pi3K % activity @0.03 μM” value in the assay with pi3K was determined as 92%. For `FC(F)(F)c1cc(-n2c3c4cc(-c5cccnc5)ccc4ncc3n3cnnc23)ccc1Cl` [3-pyridine, 4-Cl, H, 16-[4-chloro-3-(trifluoromethyl)phenyl]-4-(pyridin-3-yl)-8,11,13,14,16-pentaazatetracyclo-[8.6.0.0^2,7.0^11,15]hexadeca-1(10),2,4,6,8,12,14-heptaene], in that order: 19% and 77%. For `COCCNc1ccc(-c2ccc3ncc4c(c3c2)n(-c2ccc(Cl)c(C(F)(F)F)c2)c2nncn42)cn1` [5-{16-[4-chloro-3-(trifluoromethyl)phenyl]-8,11,13,14,16-pentaazatetracyclo[8.6.0.0^2,7.0^11,15]-hexadeca-1(10),2,4,6,8,12,14-heptaen-4-yl}-N-(2-methoxyethyl)pyridin-2-amine], in that order: -5% and 87%. For `FC(F)(F)c1cc(-n2c3c4cc(-c5ccc(NCCN6CCCC6)nc5)ccc4ncc3n3cnnc23)ccc1Cl` [5-{16-[4-chloro-3-(trifluoromethyl)phenyl]-8,11,13,14,16-pentaazatetracyclo[8.6.0.0^2,7.0^11,15]-hexadeca-1(10),2,4,6,8,12,14-heptaen-4-yl}-N-[2-(pyrrolidin-1-yl)ethyl]pyridin-2-amine], in that order: 15% and 98%.

On to `OCCNc1ccc(-c2ccc3ncc4c(c3c2)n(-c2ccc(Cl)c(C(F)(F)F)c2)c2nncn42)cn1` [2-[(5-{16-[4-chloro-3-(trifluoromethyl)phenyl]-8,11,13,14,16-pentaazatetracyclo-[8.6.0.0^2,7.0^11,15]-hexadeca-1(10),2,4,6,8,12,14-heptaen-4-yl}pyridin-2-yl)amino]ethanol], for which the activity at 0.03 µM at mTor was -4%. Also, in the assay with pi3K, the “pi3K % activity @0.03 μM” value turned out to be 82%. For `O=C(CN1CCCC1)Nc1ccc(-c2ccc3ncc4c(c3c2)n(-c2ccc(Cl)c(C(F)(F)F)c2)c2nncn42)cn1` [N-(5-{16-[4-chloro-3-(trifluoromethyl)phenyl]-8,11,13,14,16-pentaazatetracyclo[8.6.0.0^2,7.0^11,15]-hexadeca-1(10),2,4,6,8,12,14-heptaen-4-yl}pyridin-2-yl)-2-(pyrrolidin-1-yl)acetamide], in that order: 4% and 82%. For `CN1CCN(CC(=O)Nc2ccc(-c3ccc4ncc5c(c4c3)n(-c3ccc(Cl)c(C(F)(F)F)c3)c3nncn53)cn2)CC1` [N-(5-{16-[4-chloro-3-(trifluoromethyl)phenyl]-8,11,13,14,16-pentaazatetracyclo[8.6.0.0^2,7.0^11,15]-hexadeca-1(10),2,4,6,8,12,14-heptaen-4-yl}pyridin-2-yl)-2-(4-methylpiperazin-1-yl)acetamide], in that order: -4% and 74%.

With `Nc1ccc(-c2ccc3ncc4c(c3c2)n(-c2ccc(Cl)c(C(F)(F)F)c2)c2nncn42)cn1` [5-pyridin-2-amine, 4-Cl, H, 5-{16-[4-chloro-3-(trifluoromethyl)phenyl]-8,11,13,14,16-pentaazatetracyclo-[8.6.0.0^2,7.0^11,15]hexadeca-1(10),2,4,6,8,12,14-heptaen-4-yl}pyridin-2-amine], the activity at 0.03 µM at mTor was -19%. Further, the “pi3K % activity @0.03 μM” value with pi3K came out at 38%.

As for `FC(F)(F)c1cccc(-n2c3c4cc(-c5cnc6ccccc6c5)ccc4ncc3n3cnnc23)c1` [3-quinoline, H, H, 4-(quinolin-3yl)-16-[3-(trifluoromethyl)phenyl]-8,11,13,14,16-pentaazatetracyclo-[8.6.0.0^2,7.0^11,15]hexadeca-1(10),2,4,6,8,12,14-heptaene], the activity at 0.03 µM on mTor was -5%. Also, the “pi3K % activity @0.03 μM” value with pi3K came out at 68%. For `FC(F)(F)c1cc(-n2c3c4cc(-c5ccc(NCCN6CCOCC6)nc5)ccc4ncc3n3cnnc23)ccc1Cl` [5-{16-[4-chloro-3-(trifluoromethyl)phenyl]-8,11,13,14,16-pentaazatetracyclo[8.6.0.0^2,7.0^11,15]-hexadeca-1(10),2,4,6,8,12,14-heptaen-4-yl}-N-[2-(morpholin-4-yl)ethyl]pyridin-2-amine], in that order: 20% and 93%. For `FC(F)(F)c1cccc(-n2c3c4cc(-c5ccc(NCCN6CCCC6)nc5)ccc4ncc3n3cnnc23)c1` [N-[2-(pyrrolidin-1-yl)ethyl]-5-{16-[3-(trifluoromethyl)phenyl]-8,11,13,14,16-pentaazatetracyclo-[8.6.0.0^2,7.0^11,15]-hexadeca-1(10),2,4,6,8,12,14-heptaen-4-yl}pyridin-2-amine], in that order: 4% and 101%. For “N-[2-(morpholin-4-yl)ethyl]-5-{16-[3-(trifluoromethyl)phenyl]-8,11,13,14,16-pentaazatetra-cyclo[8.6.0.0^2,7.0^11,15]hexadeca-1(10),2,4,6,8,12,14-heptaen-4-yl}pyridin-2-amine”, on mTor, the “mTor % activity @0.03 μM” value is 43%. In the assay on pi3K, the “pi3K % activity @0.03 μM” value is reported as 94%. Take `CN(C)CC(=O)Nc1ccc(-c2ccc3ncc4c(c3c2)n(-c2cccc(C(F)(F)F)c2)c2nncn42)cn1` [2-(dimethylamino)-N-(5-{16-[3-(trifluoromethyl)phenyl]-8,11,13,14,16-pentaazatetracyclo-[8.6.0.0^2,7.0^11,15]hexadeca-1(10),2,4,6,8,12,14-heptaen-4-yl}pyridin-2-yl)acetamide]: the activity at 0.03 µM on mTor came to 7%. Besides, the “pi3K % activity @0.03 μM” value with pi3K amounted to 89%. In the case of “2-(4-methylpiperazin-1-yl)-N-(5-{16-[3-(trifluoromethyl)phenyl]-8,11,13,14,16-pentaazatetra-cyclo[8.6.0.0^2,7.0^11,15]hexadeca-1(10),2,4,6,8,12,14-heptaen-4-yl}pyridin-2-yl)acetamide”, the “mTor % activity @0.03 μM” value at mTor was determined as 46%. The “pi3K % activity @0.03 μM” value in the assay with pi3K was determined as 97%. As for `CC(=O)Nc1ccc(-c2ccc3ncc4c(c3c2)n(-c2ccc(Cl)c(C(F)(F)F)c2)c2nncn42)cn1` [N-(5-pyridin-2-yl)acetamide, 4-Cl, H, N-(5-{16-[4-chloro-3-(trifluoromethyl)phenyl]-8,11,13,14,16-pentaazatetracyclo-[8.6.0.0^2,7.0^11,15]hexadeca-1(10),2,4,6,8,12,14-heptaen-4-yl}pyridin-2-yl)acetamide], the activity at 0.03 µM at mTor was determined as 5%.
